In assay [1] the test system is LDL. The assay is described as follows: Protection against LDL oxidation by copper (conjugated diene formation). To be noted: FIG. 1-3; compound at 10^-4M; copper alone 348. In kind it is biochemical. As for the experimental part: LDL oxidation is an important alteration and plays a predominant role in the establishment and development of atherosclerosis (Jurgens, Hoff et al. 1987). […] Unless otherwise indicated, the reagents were from Sigma (St Quentin, France).
LDL were prepared according to the method described by Lebeau et al. (Lebeau, Furman et al. 2000).
The solutions of test compounds were prepared at 10^−2 M concentration in bicarbonate buffer (pH 9) and diluted in PBS to obtain final concentrations ranging from 0.1 to 100 μM for a total ethanol concentration of 1% (V/V).
Prior to oxidation, EDTA was removed from the LDL preparation by dialysis. Oxidation then took place at 30° C. by addition of 100 μl of 16.6 μM CuSO4 solution to 160 μL of LDL (125 μg protein/ml) and 20 μl of a test compound solution. The formation of dienes, the species under observation, was followed by measuring optical density at 234 nm in the samples treated with the compounds but in the presence or absence of copper. Optical density at 234 nm was measured every 10 minutes for 8 hours in a thermostated spectrophotometer (Tecan Ultra 380). The analyses were performed in triplicate. The compounds were considered to have antioxidant activity when they induced a longer lag phase and reduced the rate of oxidation and the amount of dienes formed in comparison with the control sample. […] FIGS. 1, 2 and 3 give an example of the results illustrating the antioxidant properties of compounds 2 and 5.

The target of assay [2] is T1, PPARα (Homo sapiens, UniProt Q07869).
T1 construct: expressed in transfected cells; host or cells: RK13 cells
T1 sequence (Q07869 239-466 limits assumed): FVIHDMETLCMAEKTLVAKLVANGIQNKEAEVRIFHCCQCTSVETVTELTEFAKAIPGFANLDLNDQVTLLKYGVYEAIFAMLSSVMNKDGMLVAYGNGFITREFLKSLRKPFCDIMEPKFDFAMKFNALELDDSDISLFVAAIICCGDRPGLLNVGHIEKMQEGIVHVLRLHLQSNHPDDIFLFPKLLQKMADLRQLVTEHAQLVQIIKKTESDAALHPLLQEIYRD
The assay is described as follows: PPARα/Gal4 transactivation system in RK13 cells (luciferase reporter). In kind it is cell-based, rabbit. Particulars: 24 hours. The method, then: RK13 cells were incubated with the different compounds at concentrations of 10, 30 and 100 μM or 1, 10 and 100 μM for 24 hours. The results are expressed as the induction factor (luminescent signal relative to untreated cells) after the different treatments.
(§1) PPAR activation was tested in vitro in RK13 fibroblast cell lines by measuring the transcriptional activity of chimeras composed of the DNA binding domain of the yeast gal4 transcription factor and the ligand binding domain of the different PPARs. These latter results were then confirmed in cell lines according to the following protocols:
(§2) RK13 cells were from ECACC (Porton Down, UK) and were grown in DMEM medium supplemented with 10% (V/N) fetal calf serum, 100 U/ml penicillin (Gibco, Paisley, UK) and 2 mM L-glutamine (Gibco, Paisley, UK). The culture medium was changed every two days. Cells were kept at 37° C. in a humidified 95% air/5% CO2 atmosphere.
(§3) The plasmids pG5TkpGL3, pRL-CMV, pGal4-hPPRAα, pGal4-hPPRAγ and pGal4-φ have been described by Raspe, Madsen et al. (1999). The pGal4-mPPRAα and pGal4-hPPRAγ constructs were obtained by cloning into the pGal4-φ vector of PCR-amplified DNA fragments corresponding to the DEF domains of the human PPARα and PPRAγ nuclear receptors.
[…] At the end of the experiment, the cells were lysed (Gibco, Paisley, UK) and luciferase activity was determined with a Dual-Luciferase™ Reporter Assay System kit (Promega, Madison, Wis., USA) according to the supplier's instructions as previously described (Raspe, Madsen et al. 1999).

Assay [3] deals with T2, PPARγ (Homo sapiens, UniProt P37231).
T2 construct: expressed in transfected cells; host or cells: RK13 cells
T2 sequence (P37231 238-503 limits assumed): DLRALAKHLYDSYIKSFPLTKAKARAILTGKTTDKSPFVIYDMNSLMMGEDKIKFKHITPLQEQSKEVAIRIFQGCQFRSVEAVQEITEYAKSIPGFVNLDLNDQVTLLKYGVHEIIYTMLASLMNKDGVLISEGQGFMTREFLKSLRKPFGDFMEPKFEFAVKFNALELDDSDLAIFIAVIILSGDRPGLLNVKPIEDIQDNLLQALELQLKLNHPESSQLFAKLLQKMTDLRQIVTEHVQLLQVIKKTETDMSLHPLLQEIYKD
Description: PPARγ/Gal4 transactivation system in RK13 cells (luciferase reporter). In kind it is cell-based. Particulars: 24 hours. As for the experimental part: RK13 cells were incubated with the different compounds at concentrations of 1, 10 and 100 μM for 24 hours. The results are expressed as the induction factor (luminescent signal relative to untreated cells) after the different treatments.
as §1, §2, §3
RK13 cells were seeded in 24-well culture dishes at 5×10^4 cells/well and transfected for 2 hours with the reporter plasmid pG5TkpGL3 (50 ng/well), the expression vectors pGal4-φ, pGal4-mPPRAα, pGal4-hPPRAα, pGal4-hPPRAγ (100 ng/well) and the transfection efficiency control vector PRL-CMV (1 ng/well) according to the previously described protocol (Raspe, Madsen et al. 1999), then incubated for 36 hours with the test compounds. At the end of the experiment, the cells were lysed (Gibco, Paisley, UK) and luciferase activity was determined with a Dual-Luciferase™ Reporter Assay System kit (Promega, Madison, Wis., USA) according to the supplier's instructions as previously described (Raspe, Madsen et al. 1999).
Background: A reporter such as luciferase makes a cellular process visible.

In assay [4] the test system is Apo E2/E2 transgenic mice. The assay is described as follows: Effects on triglyceride and cholesterol metabolism in vivo. As for the experimental part:
Apo E2/E2 transgenic mice were kept on a 12-hour light/dark cycle at a constant temperature of 20±3° C. After a 1 week acclimation, the mice were weighed and divided into groups of 6 animals selected so that body weight would be uniformly distributed. The test compounds were suspended in carboxymethylcellulose and administered by intragastric gavage at the indicated doses, once a day for 7 or 8 days. Animals had access to food and water ad libitum. At the end of the experiment the animals were weighed and sacrificed under anesthesia. Blood was collected on EDTA. Plasma was prepared by centrifugation at 3000 rpm for 20 minutes. Liver samples were taken and stored frozen in liquid nitrogen for subsequent analysis.
Serum lipid concentrations (total cholesterol and free cholesterol, triglycerides and phospholipids) were determined by a colorimetric assay (Boehringer, Mannheim, Germany) according to the supplier's instructions. Serum concentrations of apolipoproteins AI, AII and CIII were determined as previously described (Raspe et al. J. Lipid Res. 40, 2099-2110, 1999, Asset G et al., Lipids, 34, 39-44, 1999).

The structures appear in SMILES notation.

On to `Cc1cc(/C=C/C(=O)c2ccc(Cl)cc2)cc(C)c1OC(C)(C)C(=O)O` [Compound 17, 1-[4-chlorophenyl]-3-[3,5-dimethyl-4-carboxydimethylmethyloxyphenyil]prop-2-en-1-one], for which the “maximum amount of conjugated dienes formed” value in assay [1] is recorded as 327 nmol per mg of LDL. Moreover, the “Induction factor (luminescent signal relative to untreated cells)” value was 79.76 in assay [2] (1 μM); 85.69 in assay [2] (10 μM, listed as Cp17); 15.37 in assay [3] (1 μM); 25 in assay [3] (10 μM); 24.92 in assay [3] (10 μM, listed as Cp17); 6.13 in assay [3] (100 μM). The “triglycerides in large sized lipoparticles (exclusion chromatography)” value in assay [4] (gavage 200 mg/kg for 7 days, FIG. 3-3) is “decreased”. In assay [4] (gavage 200 mg/kg for 7 days, FIG. 3-4), the “cholesterol in large sized lipoparticles (exclusion chromatography)” value is “decreased”.
On to `CCCCCCOc1ccc(C(=O)/C=C/c2cc(C)c(OC(C)(C)C(=O)O)c(C)c2)cc1` [Compound 33, 1-[4-hexyloxyphenyl]-3-[3,5-dimethyl-4-carboxydimethylmethyloxyphenyl]prop-2-en-1-one], for which the “Induction factor (luminescent signal relative to untreated cells)” value in assay [2] (1 μM, listed as Cp33) came to 22.05; in assay [2] (10 μM, listed as Cp33), 44.52; in assay [2] (100 μM, listed as Cp33), 77.62; in assay [3] (1 μM) it was 15.65; in assay [3] (10 μM), 33.90; in assay [3] (100 μM), 45.6. In assay [3] (100 μM, listed as Cp33), the “Induction factor (luminescent signal relative to untreated cells)” value was found to be 45.58. Also, the “triglycerides in large sized lipoparticles (exclusion chromatography)” value in assay [4] (50 mg/kg/day for 8 days, FIG. 3-11) was “decrease”. Moreover, in assay [4] (50 mg/kg/day for 8 days, FIG. 3-12), the “cholesterol in large sized lipoparticles (exclusion chromatography)” value is “decrease”.
